Reference: ChEMBL document CHEMBL1127612, “Maleimidoethyl 3-(tri-n-butylstannyl)hippurate: a useful radioiodination reagent for protein radiopharmaceuticals to enhance target selective radioactivity localization” (J Med Chem, 1994)

Columns and labels:
Details in all cases: in vivo
Mus musculus [1] = test: Tested for biodistribution of radioactivity after 24 hr of intravenous injection in mice urine; assay type: ADME, organism-based
Mus musculus [2] = test: Tested for biodistribution of radioactivity after 24 hr of intravenous injection in mice blood; assay type: ADME, organism-based
Mus musculus [3] = test: Tested for biodistribution of radioactivity after 72 hr of intravenous injection in mice kidneys; assay type: ADME, organism-based
Mus musculus [4] = test: Tested for biodistribution of radioactivity after 3h of intravenous injection in mice blood; assay type: ADME, organism-based
Mus musculus [5] = test: Tested for biodistribution of radioactivity after 24 hr of intravenous injection in mice neck; assay type: ADME, organism-based
Mus musculus [6] = test: Tested for biodistribution of radioactivity after 6 hr of intravenous injection in mice neck; assay type: ADME, organism-based
Mus musculus [7] = test: Tested for biodistribution of radioactivity after 1 hr of intravenous injection in mice kidneys; assay type: ADME, organism-based, Kidney
Mus musculus [8] = test: Tested for biodistribution of radioactivity after 3h of intravenous injection in mice neck; assay type: ADME, organism-based
Mus musculus [9] = test: Tested for biodistribution of radioactivity after 24 hr of intravenous injection in mice lung; assay type: ADME, organism-based
Mus musculus [10] = test: Tested for biodistribution of radioactivity after 24 hr of intravenous injection in mice feces; assay type: ADME, organism-based
Mus musculus [11] = test: Tested for biodistribution of radioactivity after 1 hr of intravenous injection in mice spleen; assay type: ADME, organism-based
Mus musculus [12] = test: Tested for biodistribution of radioactivity after 6 hr of intravenous injection in mice spleen; assay type: ADME, organism-based
Mus musculus [13] = test: Tested for biodistribution of radioactivity after 72 hr of intravenous injection in mice blood; assay type: ADME, organism-based
Mus musculus [14] = test: Tested for biodistribution of radioactivity after 72 hr of intravenous injection in mice liver; assay type: ADME, organism-based
Mus musculus [15] = test: Tested for biodistribution of radioactivity after 48 hr of intravenous injection in mice neck; assay type: ADME, organism-based
Mus musculus [16] = test: Tested for biodistribution of radioactivity after 10 min of intravenous injection in mice stomach; assay type: ADME, organism-based
Mus musculus [17] = test: Tested for biodistribution of radioactivity after 6 hr of intravenous injection in mice blood; assay type: ADME, organism-based
Mus musculus [18] = test: Tested for biodistribution of radioactivity after 48 hr of intravenous injection in mice lung; assay type: ADME, organism-based
Mus musculus [19] = test: Tested for biodistribution of radioactivity after 1 hr of intravenous injection in mice neck; assay type: ADME, organism-based
Mus musculus [20] = test: Tested for biodistribution of radioactivity after 6 hr of intravenous injection in mice liver; assay type: ADME, organism-based
Mus musculus [21] = test: Tested for biodistribution of radioactivity after 6 hr of intravenous injection in mice kidneys; assay type: ADME, organism-based, Kidney
Mus musculus [22] = test: Tested for biodistribution of radioactivity after 6 hr of intravenous injection in mice lung; assay type: ADME, organism-based
Mus musculus [23] = test: Tested for biodistribution of radioactivity after 72 hr of intravenous injection in mice neck; assay type: ADME, organism-based
Mus musculus [24] = test: Tested for biodistribution of radioactivity after 3h of intravenous injection in mice liver; assay type: ADME, organism-based
Mus musculus [25] = test: Tested for biodistribution of radioactivity after 1 hr of intravenous injection in mice blood; assay type: ADME, organism-based
Mus musculus [26] = test: Tested for biodistribution of radioactivity after 3h of intravenous injection in mice stomach; assay type: ADME, organism-based
Mus musculus [27] = test: Tested for biodistribution of radioactivity after 10 min of intravenous injection in mice neck; assay type: ADME, organism-based
Mus musculus [28] = test: Tested for biodistribution of radioactivity after 10 min of intravenous injection in mice kidneys; assay type: ADME, organism-based
Mus musculus [29] = test: Tested for biodistribution of radioactivity after 48 hr of intravenous injection in mice intestine; assay type: ADME, organism-based
Mus musculus [30] = test: Tested for biodistribution of radioactivity after 6 hr of intravenous injection in mice stomach; assay type: ADME, organism-based
Mus musculus [31] = test: Tested for biodistribution of radioactivity after 48 hr of intravenous injection in mice kidneys; assay type: ADME, organism-based
Mus musculus [32] = test: Tested for biodistribution of radioactivity after 10 min of intravenous injection in mice liver; assay type: ADME, organism-based
Mus musculus [33] = test: Tested for biodistribution of radioactivity after 24 hr of intravenous injection in mice spleen; assay type: ADME, organism-based
Mus musculus [34] = test: Tested for biodistribution of radioactivity after 24 hr of intravenous injection in mice stomach; assay type: ADME, organism-based
Mus musculus [35] = test: Tested for biodistribution of radioactivity after 1 hr of intravenous injection in mice liver; assay type: ADME, organism-based
Mus musculus [36] = test: Tested for biodistribution of radioactivity after 48 hr of intravenous injection in mice spleen; assay type: ADME, organism-based
Mus musculus [37] = test: Tested for biodistribution of radioactivity after 1 hr of intravenous injection in mice lung; assay type: ADME, organism-based
Mus musculus [38] = test: Tested for biodistribution of radioactivity after 1 hr of intravenous injection in mice intestine; assay type: ADME, organism-based
Mus musculus [39] = test: Tested for biodistribution of radioactivity after 10 min of intravenous injection in mice spleen; assay type: ADME, organism-based
Mus musculus [40] = test: Tested for biodistribution of radioactivity after 10 min of intravenous injection in mice intestine; assay type: ADME, organism-based
Mus musculus [41] = test: Tested for biodistribution of radioactivity after 24 hr of intravenous injection in mice intestine; assay type: ADME, organism-based
Mus musculus [42] = test: Tested for biodistribution of radioactivity after 48 hr of intravenous injection in mice stomach; assay type: ADME, organism-based
Mus musculus [43] = test: Tested for biodistribution of radioactivity after 3h of intravenous injection in mice spleen; assay type: ADME, organism-based
Mus musculus [44] = test: Tested for biodistribution of radioactivity after 10 min of intravenous injection in mice blood; assay type: ADME, organism-based
Mus musculus [45] = test: Tested for biodistribution of radioactivity after 3h of intravenous injection in mice kidneys; assay type: ADME, organism-based, Kidney
Mus musculus [46] = test: Tested for biodistribution of radioactivity after 6 hr of intravenous injection in mice intestine; assay type: ADME, organism-based
Mus musculus [47] = test: Tested for biodistribution of radioactivity after 10 min of intravenous injection in mice lung; assay type: ADME, organism-based
Mus musculus [48] = test: Tested for biodistribution of radioactivity after 72 hr of intravenous injection in mice intestine; assay type: ADME, organism-based
Mus musculus [49] = test: Tested for biodistribution of radioactivity after 3h of intravenous injection in mice intestine; assay type: ADME, organism-based
Mus musculus [50] = test: Tested for biodistribution of radioactivity after 48 hr of intravenous injection in mice blood; assay type: ADME, organism-based
Mus musculus [51] = test: Tested for biodistribution of radioactivity after 72 hr of intravenous injection in mice lung; assay type: ADME, organism-based
Mus musculus [52] = test: Tested for biodistribution of radioactivity after 72 hr of intravenous injection in mice spleen; assay type: ADME, organism-based
Mus musculus [53] = test: Tested for biodistribution of radioactivity after 3h of intravenous injection in mice lung; assay type: ADME, organism-based
Mus musculus [54] = test: Tested for biodistribution of radioactivity after 48 hr of intravenous injection in mice liver; assay type: ADME, organism-based
Mus musculus [55] = test: Tested for biodistribution of radioactivity after 24 hr of intravenous injection in mice kidneys; assay type: ADME, organism-based, Kidney
Mus musculus [56] = test: Tested for biodistribution of radioactivity after 24 hr of intravenous injection in mice liver; assay type: ADME, organism-based
Mus musculus [57] = test: Tested for biodistribution of radioactivity after 72 hr of intravenous injection in mice stomach; assay type: ADME, organism-based
Mus musculus [58] = test: Tested for biodistribution of radioactivity after 1 hr of intravenous injection in mice stomach; assay type: ADME, organism-based

Q: With `NCCCCC(N)C(=O)NC(=O)c1cccc(I)c1` (stereo not drawn) as the compound, how does the Dose/organ (Mus musculus [1]) read?
A: 10.09%

Q: What about the Dose/g (Mus musculus [2]) of the same compound?
A: 14.39%

Q: What about the Dose/organ (Mus musculus [3]) of the same compound?
A: 2.73%

Q: And the Dose/g (Mus musculus [4])?
A: 26.13%

Q: What about the Dose/organ (Mus musculus [5]) of the same compound?
A: 0.34%

Q: And the Dose/organ (Mus musculus [6])?
A: 0.55%

Q: What about the Dose/organ (Mus musculus [7]) of the same compound?
A: 8.15%

Q: What about the Dose/organ (Mus musculus [8]) of the same compound?
A: 0.72%

Q: And the Dose/organ (Mus musculus [9])?
A: 5.55%

Q: What about the Dose/organ (Mus musculus [10]) of the same compound?
A: 0.55%

Q: What about the Dose/organ (Mus musculus [11]) of the same compound?
A: 6.38%

Q: And the Dose/organ (Mus musculus [12])?
A: 5.48%

Q: What about the Dose/g (Mus musculus [13]) of the same compound?
A: 11.5%

Q: And the Dose/organ (Mus musculus [14])?
A: 3.34%

Q: And the Dose/organ (Mus musculus [15])?
A: 0.34%

Q: And the Dose/organ (Mus musculus [16])?
A: 0.44%

Q: And the Dose/g (Mus musculus [17])?
A: 23.13%

Q: And the Dose/organ (Mus musculus [18])?
A: 4.25%

Q: What about the Dose/organ (Mus musculus [19]) of the same compound?
A: 0.83%

Q: And the Dose/organ (Mus musculus [20])?
A: 9.83%

Q: What about the Dose/organ (Mus musculus [21]) of the same compound?
A: 6.57%

Q: And the Dose/organ (Mus musculus [22])?
A: 6.9%

Q: And the Dose/organ (Mus musculus [23])?
A: 0.25%

Q: And the Dose/organ (Mus musculus [24])?
A: 11.17%

Q: What about the Dose/g (Mus musculus [25]) of the same compound?
A: 31.31%

Q: And the Dose/organ (Mus musculus [26])?
A: 1.31%

Q: And the Dose/organ (Mus musculus [27])?
A: 0.66%

Q: And the Dose/organ (Mus musculus [28])?
A: 6.31%

Q: What about the Dose/organ (Mus musculus [29]) of the same compound?
A: 0.91%

Q: And the Dose/organ (Mus musculus [30])?
A: 1.3%

Q: What about the Dose/organ (Mus musculus [31]) of the same compound?
A: 3.27%

Q: And the Dose/organ (Mus musculus [32])?
A: 15.66%

Q: What about the Dose/organ (Mus musculus [33]) of the same compound?
A: 3.37%

Q: And the Dose/organ (Mus musculus [34])?
A: 0.49%

Q: And the Dose/organ (Mus musculus [35])?
A: 14.38%

Q: And the Dose/organ (Mus musculus [36])?
A: 2.35%

Q: And the Dose/organ (Mus musculus [37])?
A: 11.1%

Q: And the Dose/organ (Mus musculus [38])?
A: 2.03%

Q: What about the Dose/organ (Mus musculus [39]) of the same compound?
A: 7.07%

Q: What about the Dose/organ (Mus musculus [40]) of the same compound?
A: 0.85%

Q: What about the Dose/organ (Mus musculus [41]) of the same compound?
A: 1.06%

Q: What about the Dose/organ (Mus musculus [42]) of the same compound?
A: 0.42%

Q: And the Dose/organ (Mus musculus [43])?
A: 5.7%

Q: What about the Dose/organ (Mus musculus [44]) of the same compound?
A: 38.38%

Q: And the Dose/organ (Mus musculus [45])?
A: 7.4%

Q: What about the Dose/organ (Mus musculus [46]) of the same compound?
A: 2.43%

Q: And the Dose/organ (Mus musculus [47])?
A: 11.91%

Q: What about the Dose/organ (Mus musculus [48]) of the same compound?
A: 0.83%

Q: What about the Dose/organ (Mus musculus [49]) of the same compound?
A: 2.88%

Q: What about the Dose/g (Mus musculus [50]) of the same compound?
A: 12.64%

Q: What about the Dose/organ (Mus musculus [51]) of the same compound?
A: 3.55%

Q: And the Dose/organ (Mus musculus [52])?
A: 1.83%

Q: And the Dose/organ (Mus musculus [53])?
A: 7.97%

Q: And the Dose/organ (Mus musculus [54])?
A: 3.84%

Q: What about the Dose/organ (Mus musculus [55]) of the same compound?
A: 4.23%

Q: What about the Dose/organ (Mus musculus [56]) of the same compound?
A: 4.94%

Q: What about the Dose/organ (Mus musculus [57]) of the same compound?
A: 0.4%

Q: What about the Dose/organ (Mus musculus [58]) of the same compound?
A: 0.81%
